Reference: patent US8455534B2, “Estrogen receptor modulators and uses thereof” (Aragon Pharmaceuticals, Inc., priority 2010, dated 2013)

What was measured:
[1] = system: MCF-7 cells; test: Breast Cancer Cell Viability Assay (MCF-7, CellTiter-Glo); assay type: cell-based; details: 5 days' compound exposure; for IC50: Homo sapiens, MCF7, 120 h
Protocol: MCF-7 cells were adjusted to a concentration of 20,000 cells per mL in RPMI containing 10% FBS and 20 mM HEPES. 16 microliters of the cell suspension (320 cells) was added to each well of a 384 well plate, and the cells were incubated overnight to allow the cells to adhere. The following day an eleven point, serial semilog dilution of each compound was added to the cells in 16 μL at a final concentration ranging from 0.3-0.000003 μM. After 5 days' compound exposure, 16 μL of CellTiter-GLo (Promega, Madison Wis.) was added to the cells the relative luminescence units (RLUs) of each well was determined CellTiter-Glo added to 32 μL of medium without cells was used to obtain a background value. The Percent viability of each sample was determined as follows: (RLU sample-RLU background/RLU untreated cells-RLU background)×100=% viability.

[2] = molecular target: T1, ER-α (Homo sapiens, UniProt P03372); test: Breast Cancer Cell ER-α In Cell Western Assay (SP1); assay type: cell-based; details: MCF-7 cells, SP1 antibody, 4 or 24 hr post compound addition; for Emax: MCF7, read-out: ER-α In Cell Western Assay (SP1) Max Response; for DC50: read-out: ER-α In Cell Western Assay (SP1) IC50
T1 sequence (P03372 1-595): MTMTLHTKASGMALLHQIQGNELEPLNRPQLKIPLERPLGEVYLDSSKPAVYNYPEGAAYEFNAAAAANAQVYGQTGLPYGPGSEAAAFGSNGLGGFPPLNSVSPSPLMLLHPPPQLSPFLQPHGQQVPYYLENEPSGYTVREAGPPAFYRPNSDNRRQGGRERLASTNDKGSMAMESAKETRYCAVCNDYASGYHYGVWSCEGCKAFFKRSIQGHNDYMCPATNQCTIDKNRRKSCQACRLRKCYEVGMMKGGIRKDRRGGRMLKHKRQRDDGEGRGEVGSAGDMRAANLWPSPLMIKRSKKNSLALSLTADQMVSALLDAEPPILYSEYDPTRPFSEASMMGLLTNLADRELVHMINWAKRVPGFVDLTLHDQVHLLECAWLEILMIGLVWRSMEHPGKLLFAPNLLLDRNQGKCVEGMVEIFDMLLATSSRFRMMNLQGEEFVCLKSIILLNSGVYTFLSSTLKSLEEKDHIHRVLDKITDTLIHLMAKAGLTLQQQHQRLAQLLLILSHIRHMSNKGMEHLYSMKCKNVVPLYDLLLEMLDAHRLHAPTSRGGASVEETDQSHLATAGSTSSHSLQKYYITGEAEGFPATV
Protocol: MCF-7 cells were adjusted to a concentration of 200,000 cells per mL in RPMI containing 10% charcoal-stripped FBS and 20 mM HEPES. 16 microliters of the cell suspension (3200 cells) was added to each well of a poly-D-lysine 384 well plate, and the cells were incubated overnight to allow the cells to adhere. The following day an eleven point, serial semilog dilution of each compound was added to the cells in 16 μL at a final concentration ranging from 0.3-0.000003 μM. At 4 or 24 hr post compound addition, the cells were fixed (10% formalin in PBS) for 20 minutes. Cells were permeablized in PBS 0.1% Triton and blocked with LICOR blocking buffer (50 μL1/well, 90′). The wells were then incubated overnight at 4° C. with SP1 rabbit monoclonal Ab (Thermo Scientific) diluted 1:1000 in LICOR blocking buffer/0.1% Tween-20. Wells which were treated with blocking buffer with Tween but no antibody were used as a background control. Wells were washed with 0.1% Tween-20/PBS and then incubated in goat anti-rabbit IRDye™ 800CW (LICOR Inc.; 1:1000) and DRAQ5 DNA dye (1:2000 for 2 mM stock) diluted in LICOR blocking buffer containing 0.1% Tween-20 and 0.01% SDS for 60 minutes. Cells were washed (50 μl/well, 5′ each) in 0.1% Tween-20/PBS. Plates were scanned on a LICOR Odyssey infrared imaging system. Integrated intensities in the 800 nm channel and 700 nm channel were measured to determine levels of ER and DNA respectively. Percent ER levels were determined as follows: (Integrated intensity 800 nm sample/integrated intensity 700 nm sample)/(Integrated intensity 800 nm untreated cells/integrated intensity 700 nm untreated cells)×100=% ER levels.

IC50 [1]	Emax [2]	DC50 [2]	Structure (SMILES)	MCF7 Viability Assay Max Response [1]
≤ 0.1 µM	≥ 40%	≤ 0.1 µM	CC(C)/C(=C(/c1ccc(/C=C/C(=O)O)cc1)c1ccc2[nH]ncc2c1)c1ccc(F)cc1Cl [Compound 82, (E)-3-(4-((E)-2-(2-Chloro-4-fluorophenyl)-1-(1H-indazol-5-yl)-3-methylbut-1-en-1-yl)phenyl)acrylic acid]	++ (++ = a single % value ≧ 40%)
≤ 0.1 µM	≥ 40%	≤ 0.1 µM	CC/C(=C(/c1ccc(/C=C/C(=O)O)cc1)c1ccc2[nH]ncc2c1)c1cccc(OC)c1Cl [Compound 135, (E)-3-(4-((E)-2-(2-Chloro-3-methoxyphenyl)-1-(1H-indazol-5-yl)but-1-en-1-yl)phenyl)acrylic acid]	++ (++ = a single % value ≧ 40%)
≤ 0.1 µM	≥ 40%	≤ 0.1 µM	O=C(O)/C=C/c1ccc(/C(=C(/CCF)c2ccccc2)c2ccc3[nH]ncc3c2F)cc1 [Compound 79, (E)-3-(4-((E)-4-Fluoro-1-(4-fluoro-1H-indazol-5-yl)-2-phenylbut-1-en-1-yl)phenyl)acrylic acid]	++ (++ = a single % value ≧ 40%)
≤ 0.1 µM	≥ 40%	≤ 0.1 µM	Cc1cc(Cl)ccc1/C(=C(\c1ccc(/C=C/C(=O)O)cc1)c1ccc2[nH]ncc2c1)C1CC1 [Compound 126, (E)-3-(4-((E)-2-(4-Chloro-2-methylphenyl)-2-cyclopropyl-1-(1H-indazol-5-yl)vinyl)phenyl)acrylic acid]	++ (++ = a single % value ≧ 40%)
≤ 0.1 µM	≥ 40%	≤ 0.1 µM	CC/C(=C(/c1ccc(/C=C/C(=O)O)cc1)c1ccc2[nH]ncc2c1)c1ccc(C(F)(F)F)cc1C#N [Compound 139, (E)-3-(4-((E)-2-(2-Cyano-4-(trifluoromethyl)phenyl)-1-(1H-indazol-5-yl)but-1-en-1-yl)phenyl)acrylic acid]	++ (++ = a single % value ≧ 40%)
≤ 0.1 µM	≥ 40%	–	CC/C(=C(/c1ccc(/C=C/C(=O)O)c(OC)c1)c1ccc2[nH]ncc2c1)c1ccccc1 [Compound 109, (E)-3-(4-((Z)-1-(1H-Indazol-5-yl)-2-phenylbut-1-en-1-yl)-2-methoxyphenyl)acrylic acid]	++ (++ = a single % value ≧ 40%)
≤ 0.1 µM	≥ 40%	≤ 0.1 µM	CC/C(=C(/c1ccc(/C=C/C(=O)O)cc1)c1ccc2[nH]ncc2c1)c1ccc(F)cc1C(F)(F)F [Compound 116, (E)-3-(4-((E)-2-(4-Fluoro-2-(trifluoromethyl)phenyl)-1-(1H-indazol-5-yl)but-1-en-1-yl)phenyl)acrylic acid]	++ (++ = a single % value ≧ 40%)
≤ 0.1 µM	≥ 40%	≤ 0.1 µM	Cc1cc(Cl)ccc1/C(=C(\c1ccc(/C=C/C(=O)O)cc1)c1ccc2[nH]ncc2c1F)C1CC1 [Compound 72, (E)-3-(4-((E)-2-(4-Chloro-2-methylphenyl)-2-cyclopropyl-1-(4-fluoro-1H-indazol-5-yl)vinyl)phenyl)acrylic acid]	++ (++ = a single % value ≧ 40%)
≤ 0.1 µM	≥ 40%	≤ 0.1 µM	Cn1ncc2cc(/C(=C(/c3ccccc3)C3CCC3)c3ccc(/C=C/C(=O)O)cc3)ccc21 [Compound 146, (E)-3-(4-((E)-2-Cyclobutyl-1-(1-methyl-1H-indazol-5-yl)-2-phenylvinyl)phenyl)acrylic acid]	++ (++ = a single % value ≧ 40%)
≤ 0.1 µM	≥ 40%	–	CC/C(=C(\c1ccc2[nH]ncc2c1)c1ccc(/C=C/C(=O)O)cc1C)c1ccccc1 [Compound 100, (E)-3-(4-((Z)-1-(1H-Indazol-5-yl)-2-phenylbut-1-en-1-yl)-3-methylphenyl)acrylic acid]	++ (++ = a single % value ≧ 40%)

The remaining lines, values behind:

Structure (SMILES)	IC50 [1]	Emax [2]	DC50 [2]	MCF7 Viability Assay Max Response [1]
CCCC/C(=C(/c1ccc(/C=C/C(=O)O)cc1)c1ccc2[nH]ncc2c1)c1ccccc1 [Compound 59, (E)-3-(4-((E)-1-(1H-Indazol-5-yl)-2-phenylhex-1-en-1-yl)phenyl)acrylic acid]	≤ 0.1 µM	≥ 40%	≤ 0.1 µM	++ (++ = a single % value ≧ 40%)
CC(C)C/C(=C(/c1ccc(/C=C/C(=O)O)cc1)c1ccc2[nH]ncc2c1)c1ccc(F)cc1Cl [Compound 63, (E)-3-(4-((E)-2-(2-Chloro-4-fluorophenyl)-1-(1H-indazol-5-yl)-4-methylpent-1-en-1-yl)phenyl)acrylic acid]	≤ 0.1 µM	≥ 40%	≤ 0.1 µM	++ (++ = a single % value ≧ 40%)
CC/C(=C(/c1ccc(/C=C/C(=O)O)cc1)c1ccc2[nH]ncc2c1)c1cccc(C)c1 [Compound 10, (E)-3-(4-((E)-1-(1H-Indazol-5-yl)-2-(m-tolyl)but-1-en-1-yl)phenyl)acrylic acid]	≤ 0.1 µM	≥ 40%	≤ 0.1 µM	++ (++ = a single % value ≧ 40%)
CC(C)/C(=C(/c1ccc(/C=C/C(=O)O)cc1)c1ccc2[nH]ncc2c1)c1ccccc1 [Compound 55, (E)-3-(4-((E)-1-(1H-Indazol-5-yl)-3-methyl-2-phenylbut-1-en-1-yl)phenyl)acrylic acid]	≤ 0.1 µM	≥ 40%	≤ 0.1 µM	++ (++ = a single % value ≧ 40%)
CC/C(=C(/c1ccc(/C=C/C(=O)O)cc1)c1ccc2[nH]ncc2c1)c1ccc(F)cc1 [Compound 3, (E)-3-(4-((E)-2-(4-Fluorophenyl)-1-(1H-indazol-5-yl)but-1-en-1-yl)phenyl)acrylic acid]	≤ 0.1 µM	≥ 40%	≤ 0.1 µM	++ (++ = a single % value ≧ 40%)
CC/C(=C(/c1ccc(/C=C/C(=O)O)cc1)c1ccc2[nH]ncc2c1)c1ccccc1C#N [Compound 21, (E)-3-(4-((E)-2-(2-Cyanophenyl)-1-(1H-indazol-5-yl)but-1-en-1-yl)phenyl)acrylic acid]	≤ 0.1 µM	≥ 40%	–	++ (++ = a single % value ≧ 40%)
CC/C(=C(/c1ccc(/C=C/C(=O)O)cc1)c1ccc2[nH]ncc2c1)c1ccc(OC)cc1 [Compound 13, (E)-3-(4-((E)-1-(1H-Indazol-5-yl)-2-(4-methoxyphenyl)but-1-en-1-yl)phenyl)acrylic acid]	≤ 0.1 µM	≥ 40%	≤ 0.1 µM	++ (++ = a single % value ≧ 40%)
CCCCOc1cccc(/C(CC)=C(\c2ccc(/C=C/C(=O)O)cc2)c2ccc3[nH]ncc3c2)c1 [Compound 96, (E)-3-(4-((E)-2-(3-Butoxyphenyl)-1-(1H-indazol-5-yl)but-1-en-1-yl)phenyl)acrylic acid]	≤ 0.1 µM	≥ 40%	≤ 0.1 µM	++ (++ = a single % value ≧ 40%)
